Legend:
[1] = biological target: T1, SHP-2 enzyme (Met1-Leu525), SHP2wt (Homo sapiens, UniProt Q06124); test: SHP2 inhibition enzymatic assay; assay type: biochemical; settings: 0.5 nM SHP-2 activated by 500 nM IRS1 peptide, 75 μM DiFMUP substrate
T1 construct: synthetized by Origene, Met1-Leu525, cat #TP750155; purchased Origene TP750155
T1 sequence (Q06124 1-525): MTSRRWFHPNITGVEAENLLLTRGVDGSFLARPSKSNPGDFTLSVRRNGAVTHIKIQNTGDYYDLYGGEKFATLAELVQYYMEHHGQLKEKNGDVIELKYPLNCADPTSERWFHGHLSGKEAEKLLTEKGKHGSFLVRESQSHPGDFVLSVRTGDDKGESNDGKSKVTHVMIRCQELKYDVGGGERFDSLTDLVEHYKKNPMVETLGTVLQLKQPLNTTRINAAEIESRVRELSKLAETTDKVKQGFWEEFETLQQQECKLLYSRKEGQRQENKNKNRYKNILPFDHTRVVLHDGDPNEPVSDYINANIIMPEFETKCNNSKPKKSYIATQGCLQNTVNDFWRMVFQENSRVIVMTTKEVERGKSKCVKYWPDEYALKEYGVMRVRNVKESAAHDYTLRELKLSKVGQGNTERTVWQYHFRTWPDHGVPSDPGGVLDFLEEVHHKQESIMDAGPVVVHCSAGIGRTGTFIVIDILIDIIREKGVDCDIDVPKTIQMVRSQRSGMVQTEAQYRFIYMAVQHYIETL
Procedure, shortened: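 Human SHP2 (Met1-Leu525, 0.5 nM) activated by 500 nM bis-phosphorylated IRS1 peptide, pre-incubated 30 min with compound, then 75 μM DiFMUP for 30 min at rt in HEPES pH 7.2, NaCl/KCl, EDTA, Tween-20, 5 mM DTT. Reaction quenched with bpV, fluorescence read; IC50 by four-parameter logistic fit.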

[2] = test system: phospho-ERK1/2 (Thr202/Tyr204); test: Phospho-ERK cellular assay; assay type: cell-based; settings: Homo sapiens; KYSE-520 cells, 2 h at 37° C, TR-FRET; read-out: pERK IC50
Procedure, shortened: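 KYSE-520 cells treated overnight-after-plating with serially diluted compounds for 2 h at 37° C, then lysed. Phospho-ERK1/2 measured by TR-FRET after overnight antibody incubation at rt; inhibition normalized between DMSO (0%) and no-cell (100%) wells, IC50 from four-parameter logistic fit.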

[3] = biological target: T2, recombinant SHP2 protein (AviTag-G4SG4S-SHP2(1-525)) (Homo sapiens, UniProt Q06124); test: Binding kinetic assay by surface plasmon resonance (SPR); settings: for Residence time 1/koff SPR: 1/koff from SPR; for koff: Biacore T200, single cycle kinetic, 25° C, 1:1 Langmuir model
T2 construct: recombinant SHP2 protein (AviTag-G4SG4S-SHP2(1-525)); purchased VIVA Biotech Ltd (custom production)
T2 sequence (Q06124 1-525): T1 sequence (Q06124 1-525)
Method: A N-term biotinylated recombinant SHP2 protein (AviTag-G4SG4S-SHP2(1-525)) was custom produced by VIVA Biotech Ltd. Binding kinetic rate constants were measured by SPR, using a Biacore T200 instrument. The recombinant SHP2 protein was diluted at […] in HBS-P+ buffer, then captured on a series S streptavidin sensor chip up to 5000 RU. Binding of compounds was assessed by a single cycle kinetic procedure (SCK): compounds were diluted in HBS-EP+ supplemented with 20% DMSO (from 300 to 3.7 nM, 3 fold dilution), injected for 120 s over the ligand, then dissociation rate measured for 3600 s, at […] and 25° C. Sensorgrams were analysed by Biacore T200 evaluation software: binding rate constants (kon, koff) and affinity (KD) were calculated by curve filling according to a 1:1 Langmuir model. Each molecule was tested in triplicate on separate flow channels.

[4] = Determination of brain penetration in SD rats; assay type: in vivo; settings: Sprague-Dawley (SD), rat; male SD rats, IV 0.2 mg/kg, unbound brain to plasma ratio at 8 h; read-out: Kpuu, brain
Method: Total brain levels, expressed as brain/plasma ratio (Kp,brain) were measured by Cbrain@8h/Cplasma@8h in SD rats after IV administration (see Pharmaceutical Research, Vol. 25, No. 8, August 2008 DOI: 10.1007/s11095-007-9502-2; Pharmaceutical Research (2022) 39:1321-1341 https://doi.org/10.1007/s11095-022-03246-6). Unbound fraction of each molecule in biological matrix was determined by in vitro plasma and brain binding assay. Kpuu, brain was calculated by the following equation: […]
In vitro plasma and brain binding assay was carried out on a RED (Rapid Equilibrium Dialysis) device. Unbound fraction (fu) of each molecule in the brain homogenate and plasma were calculated by the ratio of the buffer side response to the brain homogenate/plasma side response. An IV study design was used as the in vivo screening model to identify brain penetration of each molecule. Male naïve SD rats (n=3) were intravenously dosed with each molecule at 0.2 mg/kg in DMSO/Propylene Glycol/Water, 20:60:20 (v/v/v). At 0.083, 0.25, 0.5, 1, 2, 4, and 8 h post-dose plasma samples were collected via tail vein and brain tissue was harvested at the 8 h time point and homogenized in 3× volume of water. All samples were stored at ˜−80° C. prior to LC/MS/MS analysis. At the 8 h time point, the unbound brain to plasma ratios were generated to identify molecules with Kpuu, brain values>0.3 which is indicative of good passive brain penetration.

Compound | IC50 [1] [nM] | IC50 [2] [nM] | Residence time 1/koff SPR [3] [s] | koff [3] [s⁻¹] | Kp uu at 8 h [4]
Cc1c(F)ccc(Sc2cnc(N3CCC4(CC3)Cn3nccc3[C@H]4N)cn2)c1F [Example 45, (S)-1-(5-((2,4-difluoro-3-methylphenyl)thio)pyrazin-2-yl)-4′H,6′H-spiro[piperidine-4,5′-pyrrolo[1,2-b]pyrazol]-4′-amine] | ≤ 50 | < 100 | 12664 | 7.9e-05 | 
Cc1cccc(Sc2cnc(N3CCC4(CC3)Cn3nccc3[C@H]4N)cn2)c1F [Example 36, (S)-1-(5-((2-fluoro-3-methylphenyl)thio)pyrazin-2-yl)-4′H,6′H-spiro[piperidine-4,5′-pyrrolo[1,2-b]pyrazol]-4′-amine] | ≤ 50 | < 100 | 53571 | 1.87e-05 | < 0.3
N[C@@H]1c2ccnn2CC12CCN(c1cnc(Sc3ccnc4ccccc34)cn1)CC2 [Example 39, (S)-1-(5-(quinolin-4-ylthio)pyrazin-2-yl)-4′H,6′H-spiro[piperidine-4,5′-pyrrolo[1,2-b]pyrazol]-4′-amine] | ≤ 50 | < 100 | 5474 | 0.000183 | > 0.3
N[C@@H]1c2ccnn2CC12CCN(c1cnc(Oc3cccc(Cl)c3Cl)cn1)CC2 [Example 2, (S)-1-(5-(2,3-dichlorophenoxy)pyrazin-2-yl)-4′H,6′H-spiro[piperidine-4,5′-pyrrolo[1,2-b]pyrazol]-4′-amine] | ≤ 50 | 100 to 500 | 1944 | 0.000514 | > 0.3

The next lines start with the values.

IC50 [1] [nM] | IC50 [2] [nM] | Residence time 1/koff SPR [3] [s] | koff [3] [s⁻¹] | Kp uu at 8 h [4] | Compound
≤ 50 | < 100 | 90909 | 1.1e-05 | > 0.3 | N[C@@H]1c2ccnn2CC12CCN(c1cnc(Sc3cccc(-n4cccn4)c3Cl)cn1)CC2 [Example 10, (S)-1-(5-((2-chloro-3-(1H-pyrazol-1-yl)phenyl)thio)pyrazin-2-yl)-4′H,6′H-spiro[piperidine-4,5′-pyrrolo[1,2-b]pyrazol]-4′-amine]
≤ 50 | < 100 | 3417 | 0.000293 | > 0.3 | N[C@@H]1c2ccnn2CC12CCN(c1cnc(Sc3cccc(-n4ccnc4)c3Cl)cn1)CC2 [Example 44, (S)-1-(5-((2-chloro-3-(1H-imidazol-1-yl)phenyl)thio)pyrazin-2-yl)-4′H,6′H-spiro[piperidine-4,5′-pyrrolo[1,2-b]pyrazol]-4′-amine]
≤ 50 | < 100 | 8065 | 0.000124 | > 0.3 | Cc1c(N2CCC3(CC2)Cn2nccc2[C@H]3N)nc(C)n(-c2cccc(Cl)c2Cl)c1=O (single isomer, unassigned) [Example 3]
≤ 50 | < 100 | 11001 | 9.09e-05 | > 0.3 | N[C@@H]1c2ccnn2CC12CCN(c1cnc(Sc3ccccc3F)cn1)CC2 [Example 21, (S)-1-(5-((2-fluorophenyl)thio)pyrazin-2-yl)-4′H,6′H-spiro[piperidine-4,5′-pyrrolo[1,2-b]pyrazol]-4′-amine]

Reference: patent publication US20260109699A1, “AZOLE DERIVATIVES AS SHP2 INHIBITORS” (IRBM S.P.A., priority 2022, published 2026)
